The text below walks through data of patent US9029414B2, “Triterpenoid compounds and methods of use thereof” (Biotechnology Research Corporation, priority 2008, dated 2015).

The subject of test [1] is C/EBP-b and c-fos expression in cortical neurons. Kind of test: C/EBP-b and c-fos mRNA (real-time PCR) in cortical neurons. To be noted: vs DMSO. In kind it is cell-based. The protocol: FIG. 4. DA001 induces CEBPb mRNA in cortical neurons. Cortical neurons were incubated with DA001 or the DMSO control for 3 different time intervals. Gene expression was normalized against the house-keeping gene, hypoxanthine phosphoribosyltransferase 1 (HPRT1) and glyceraldehyde 3-phosphate dehydrogenase (GAPDH) and compared to the control (DMSO) treatment. Relative change in gene expression induced by DA001 was compared with DMSO. Asterisk represents P<0.05.
Cortical neurons of 11 DIV-12 DIV were pre-incubated with DA001 or DMSO for 24 hours. Cells were washed in Locke's medium without magnesium for 15 min, followed by the treatment of NMDA (20 μM) or water for 20 min. Neurons were incubated with normal growth medium and total RNA were extracted at different time intervals after or without NMDA treatment. Total RNA was extracted using RNeasy Mini kit (Qiagen) according to the manufacturer's protocol, and was reverse-transcribed into single-stranded cDNA with SuperScript II Reverse Transcriptase (Invitrogen) and oligo-dT primers. Real-time Quantitative PCR was performed using Power SYBR Green PCR Master Mix (Applied Biosystems) on the Mx3000P Real-Time PCR System (Stratagene). […]
Cortical neurons were treated with DA001 at different time intervals. The expression of CCAAT/enhancer binding protein beta (C/EBP-b) and c-fos was measured at three different time intervals by real-time PCR. […]
On the technique in general: Real-time PCR tracks product formation cycle by cycle.

Test [2] has as its target T1, MC2 receptor (Homo sapiens, UniProt Q01718).
T1 construct: expressed in transfected cells
Kind of test: Cellular receptor functional assay (cAMP), MC2. Type of test: cell-based. The method, then:
DA001 inhibits ligand binding to MC1 and MC4 receptors. To determine whether the inhibitory effect is due to agonist or antagonist activity, DA001 was evaluated at 6 or 8 concentrations in cellular assays assessing receptor function. Upon ligand binding, the MC1 or MC4 receptor is activated which leads to an increase in intracellular cyclic AMP. […] DA001 alone is unable to induce cAMP increase (blue square dots). […] DA001 was further evaluated with MC2 receptor functional assay. Upon ligand binding, the MC2 receptor is activated which leads to an increase in intracellular cyclic AMP.

In test [3] the test system is LPS-induced TNF-α in serum. Description: Murine model of lipopolysaccharide-induced cytokine production. Type of test: in vivo, Swiss-Webster mice. The protocol: This is a contract research performed by Washington Biotechnology Inc., Columbia, Md., protocol 1077. Swiss-Webster mice (female, Harlan Sprague-Dawley, 5-6 weeks) were weighed and dosed orally with 10 ml/kg water, prednisolone at 10 mg/kg, or DA021 at 30 mg/kg or 100 mg/kg. Thirty minutes after oral dosing, lipopolysaccharides (LPS) at 2 mL/kg was injected. Two hours after LPS injection, the mice were anesthetized and exsanguinated into serum separator micro-container tubes. The blood was processed to serum. The serum samples were assayed for tumor necrosis factor-α (TNFα) concentration by ELISA (Pierce) according to the manufacturer's protocol.
Evaluation of the efficacy and potency of orally administered DA021 to inhibit the lipopolysaccharide (LPS)-induced release of tumor necrosis factor-α (TNF-α) in mice was carried out. LPS is a widely used endotoxin, isolated from the bacteria, E. coli in inducing acute inflammation in an organism. Prednisolone is a synthetic corticosteroid drug that is commonly used in inflammatory reactions. It is a broad range immunosuppressant. Based on FIG. 29, there was a marked increase in the amount of TNF-α in serum upon LPS treatment in mice.
Two hours after LPS injection, the serum was collected from the mice. The serum samples were assayed for tumor necrosis factor-α (TNFα) concentration by ELISA (Pierce) according to the manufacturer's protocol. N=10, significance was calculated versus LPS+vehicle using the Student's T-test, *=p≦0.05, #=p≦1×10^−4.

The subject of test [4] is hippocampal neurons. Kind of test: Hippocampal neuron survival assay against NMDA excitotoxicity (LDH). In kind it is cell-based, Sprague-Dawley rats. Conditions: 30 μM 24 hrs, NMDA 10-200 μM 20 min. The method, then:
Hippocampal neurons/cortical neurons were prepared from embryonic day 18 Sprague-Dawley rats. After the cortices had been removed from the brain, isolated cells were plated onto Poly d-Lysine (PDL) (P0899, Sigma)-coated 48 well plates (150687, NUNC) at a density of 2×10^5 cell per well using Neurobasal Medium (NB) (21103-049, Gibco) with B27 supplement (17504-044, Gibco), penicillin/streptomycin (15140, Gibco) and 1 mM L-glutamine (25030, Gibco). The cell culture was incubated at 37° C. in a humidified atmosphere of 5% CO2 in air. Medium was changed to growth medium (Neurobasal Medium with penicillin/streptomycin and B27 supplement) after 3 hours. Half medium was changed with growth medium every 2-3 days to maintain the cells until day 10 in vitro (DIV 10). Serial dilutions of samples were prepared in growth medium and DMSO was used as vehicle control. For pre-treating assay, half of the medium was removed from wells, and equal amount of diluted samples were replaced. Cells were then incubated for 2 hours at 37° C. in a humidified atmosphere of 5% CO2 in air. […] Afterwards, cells were incubated in growth medium for 18-24 hours and detected with Cytotoxicity Detection Kit (1644793, Roche).
Hippocampal neurons were treated with DA021 and subsequently subjected to varying concentrations of NMDA. […] LDH release into the medium was then measured.

T1 sequence (Q01718 whole entry): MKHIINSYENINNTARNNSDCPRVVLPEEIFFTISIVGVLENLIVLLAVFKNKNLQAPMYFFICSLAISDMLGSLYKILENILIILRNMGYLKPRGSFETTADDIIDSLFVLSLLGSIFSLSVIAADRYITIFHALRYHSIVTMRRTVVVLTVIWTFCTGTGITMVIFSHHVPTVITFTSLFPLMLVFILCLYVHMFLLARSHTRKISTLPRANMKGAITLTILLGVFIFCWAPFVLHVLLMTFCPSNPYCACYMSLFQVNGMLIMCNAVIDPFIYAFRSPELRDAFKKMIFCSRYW
T1 sequence (Q8TCY5 whole entry partner): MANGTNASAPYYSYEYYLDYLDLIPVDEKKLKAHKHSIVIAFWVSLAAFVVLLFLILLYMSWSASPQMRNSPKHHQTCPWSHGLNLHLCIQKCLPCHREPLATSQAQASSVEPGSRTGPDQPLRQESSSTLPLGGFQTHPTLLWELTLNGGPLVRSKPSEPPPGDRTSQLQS

In the case of `C=C(C)[C@@H]1CC[C@]2(C(=O)O)CC[C@]3(C)C(CC[C@@H]4[C@@]5(C)CC[C@H](O[C@@H]6OC[C@H](O)[C@H](O)[C@H]6O[C@@H]6O[C@@H](C)[C@H](O)[C@@H](O)[C@H]6O)[C@@](C)(CO)[C@@H]5CC[C@]43C)[C@@H]12` (stereo partly drawn) [DA001, 3-O-[α-L-rhamnopyranosyl-(1→2)-α-L-arabinopyranosyl]-3,23-dihydroxy-20(29)-lupen-28-oic acid], the “C/EBP-b expression (mRNA)” value in test [1] (after a 2-day treatment) is reported as “induced C/EBP-b expression”. Also, in test [1] (similar conditions), the “c-fos expression (mRNA)” value is reported as “did not affect expression of c-fos”. For the same molecule, the “Agonist effect, cAMP measurement” value in test [2] (absence of ligand ACTH1-39, cells over-expressing MC2) is 0. In addition, the “Antagonist effect, cAMP measurement” value in test [2] (presence of ligand ACTH1-39, cells over-expressing MC2) is recorded as −8.

Turning to `C=C(C)[C@@H]1CC[C@]2(/C=N/O)CC[C@]3(C)C(CCC4[C@@]5(C)CCC(=O)[C@@](C)(CO)[C@@H]5CC[C@]43C)C12` (stereo partly shown) [DA021], the “inhibition of the LPS response (serum TNF-α)” value came to 73% in test [3] (30 mg/kg orally 30 min before LPS) and 77% in test [3] (100 mg/kg orally 30 min before LPS). Further, the “protection from NMDA-induced excitotoxicity (LDH release)” value in test [4] is reported as “protects neurons against differing concentrations of NDMA”.
